Experiments:
Experiment in all cases: relative viability (nuclei count vs DMSO), 5 days (fraction); higher = more cells survive
Tozasertib + Phenformin = compound: Cc1cc(Nc2cc(N3CCN(C)CC3)nc(Sc3ccc(NC(=O)C4CC4)cc3)n2)n[nH]1 [Tozasertib] + N=C(N)NC(=N)NCCc1ccccc1 [Phenformin] (partner 250 µM)
Summary of the method: (§1)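 Five library-drug doses in √10 steps were combined with a fixed anchor-drug dose, or a single drug was given alone, by pin tool to lung cancer cell lines in 1536-well plates the day after seeding. Nuclei were stained and counted after 5 days. Relative viability is the nuclei count in treated wells over that in vehicle wells, taken as the median of duplicate plates.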

Tozasertib + Pemetrexed = compound: Cc1cc(Nc2cc(N3CCN(C)CC3)nc(Sc3ccc(NC(=O)C4CC4)cc3)n2)n[nH]1 [Tozasertib] + Nc1nc2[nH]cc(CCc3ccc(C(=O)N[C@@H](CCC(=O)O)C(=O)O)cc3)c2c(=O)[nH]1 [Pemetrexed] (partner 0.2 µM)
Summary of the method: as §1

Tozasertib + Bortezomib = compound: Cc1cc(Nc2cc(N3CCN(C)CC3)nc(Sc3ccc(NC(=O)C4CC4)cc3)n2)n[nH]1 [Tozasertib] + CC(C)C[C@H](NC(=O)[C@H](Cc1ccccc1)NC(=O)c1cnccn1)B(O)O [Bortezomib] (partner 0.002 µM)
Summary of the method: as §1

Tozasertib + Navitoclax = compound: Cc1cc(Nc2cc(N3CCN(C)CC3)nc(Sc3ccc(NC(=O)C4CC4)cc3)n2)n[nH]1 [Tozasertib] + CC1(C)CCC(c2ccc(Cl)cc2)=C(CN2CCN(c3ccc(C(=O)NS(=O)(=O)c4ccc(N[C@H](CCN5CCOCC5)CSc5ccccc5)c(S(=O)(=O)C(F)(F)F)c4)cc3)CC2)C1 [Navitoclax] (partner 0.5 µM)
Summary of the method: as §1

Tozasertib + AZD7762 = compound: Cc1cc(Nc2cc(N3CCN(C)CC3)nc(Sc3ccc(NC(=O)C4CC4)cc3)n2)n[nH]1 [Tozasertib] + NC(=O)Nc1cc(-c2cccc(F)c2)sc1C(=O)N[C@H]1CCCNC1 [AZD7762] (partner 0.2 µM)
Summary of the method: as §1

Row | Cell Line | relative viability (Tozasertib + Phenformin; first compound 0.004 µM) | relative viability (Tozasertib + Phenformin; first compound 0.01265 µM) | relative viability (Tozasertib + Phenformin; first compound 0.04 µM) | relative viability (Tozasertib + Phenformin; first compound 0.1265 µM) | relative viability (Tozasertib + Pemetrexed; first compound 0.004 µM) | relative viability (Tozasertib + Pemetrexed; first compound 0.01265 µM) | relative viability (Tozasertib + Pemetrexed; first compound 0.04 µM) | relative viability (Tozasertib + Pemetrexed; first compound 0.1265 µM) | relative viability (Tozasertib + Bortezomib; first compound 0.004 µM) | relative viability (Tozasertib + Bortezomib; first compound 0.01265 µM) | relative viability (Tozasertib + Bortezomib; first compound 0.1265 µM) | relative viability (Tozasertib + Navitoclax; first compound 0.004 µM) | relative viability (Tozasertib + Navitoclax; first compound 0.01265 µM) | relative viability (Tozasertib + Navitoclax; first compound 0.04 µM) | relative viability (Tozasertib + Navitoclax; first compound 0.1265 µM) | relative viability (Tozasertib + AZD7762; first compound 0.004 µM) | relative viability (Tozasertib + AZD7762; first compound 0.01265 µM) | relative viability (Tozasertib + AZD7762; first compound 0.04 µM) | relative viability (Tozasertib + AZD7762; first compound 0.1265 µM) | relative viability (Tozasertib + Bortezomib; first compound 0.04 µM)
1 | EKVX | 0.256 | 0.212 | 0.23 | 0.222 | 0.371 | 0.351 | 0.382 | 0.351 | 1.19 | 0.993 | 1.05 | 0.932 | 0.939 | 1.06 | 0.914 | 0.703 | 0.584 | 0.572 | 0.236 | –
2 | EMC-BAC-2 | 0.486 | 0.513 | 0.518 | 0.357 | 0.464 | 0.407 | 0.467 | 0.428 | 1.09 | 1.05 | – | 1.18 | 1.14 | 1.25 | 0.812 | 1.15 | 1.12 | 0.93 | 0.47 | 0.96
3 | EPLC-272H | 0.307 | 0.337 | 0.256 | 0.275 | 0.341 | 0.381 | 0.258 | 0.206 | 0.774 | 0.804 | – | 1.1 | 1.17 | 1.08 | – | 0.147 | 0.249 | 0.192 | 0.301 | 0.775
4 | H3255 | 0.291 | 0.396 | 0.379 | 0.353 | 0.519 | 0.579 | 0.567 | 0.552 | 0.789 | 0.7 | 0.549 | 0.336 | 0.594 | 0.569 | 0.463 | 0.837 | 0.786 | 0.884 | 0.684 | 0.823
5 | HARA | 0.365 | 0.44 | 0.493 | 0.444 | 0.24 | 0.27 | 0.274 | 0.203 | 1.18 | 1 | 0.664 | 1.17 | 1.07 | 1.15 | 1.07 | 0.353 | 0.247 | 0.209 | 0.123 | 1.01
6 | HCC-15 | 0.504 | 0.477 | 0.5 | 0.341 | 0.232 | 0.234 | 0.228 | 0.228 | 0.999 | – | 0.851 | 0.692 | 0.692 | 0.768 | 0.641 | 1.49 | 1.06 | 1.26 | 0.964 | –
7 | HCC-44 | 0.184 | 0.251 | 0.184 | 0.104 | 0.677 | 0.552 | 0.604 | 0.599 | 0.866 | 0.942 | 0.786 | 1.04 | 0.977 | 0.985 | 0.955 | 1.05 | 0.994 | 0.929 | 0.845 | 1.04
8 | LCLC-103H | 0.373 | 0.343 | 0.323 | 0.359 | 0.482 | 0.46 | 0.444 | 0.45 | 1.04 | 1.14 | 0.974 | – | – | – | – | 0.724 | 0.842 | 0.846 | 0.732 | 1.2
9 | LK-2 | 0.37 | 0.493 | 0.412 | 0.212 | 0.307 | 0.354 | 0.287 | 0.134 | – | – | – | 0.878 | 0.736 | 0.981 | 0.392 | 0.466 | 0.54 | 0.624 | 0.138 | –
